# Results as given in patent US20240366649A1, “4-ETHYNYL-3-HYDROXY-TETRAHYDROFURANYL-ADENINE PHOSPHORAMIDATES AND RELATED COMPOUNDS AND THEIR USE IN TREATING MEDICAL CONDITIONS” (ROME THERAPEUTICS, INC., priority 2021, published 2024).
# Values joined by “and” are separate entries in the source; they are usually repeats but may differ in a detail not shown here. Identical values can stand only once.
# Experiments:
# Type in all cases: cell-based
# [1] = system: IFN production in THP1 TREX1 KO cells; experiment: Cellular assay for altering IFN production in THP1 TREX1 KO cells; settings: for change in IFN levels (figure): FIG. 6-8, % induction versus compound concentration; for EC50 / IC50: Homo sapiens; for Concentration at Max Induct.: lowest concentration at which the maximum-fold IFN induction was observed; for Maximum IFN Induction: maximum-fold IFN induction, 1 μM 5-aza-2′-deoxycytidine; for IC50: inhibitors of IFN
# Procedure: (§1) THP1-Dual™ KO-TREX1 cells were purchased from Invivogen (cat #thpd-kotrex). The THP1-Dual™ KO-TREX1 cells were cultured in RPMI 1640, 10% heat-inactivated fetal bovine serum, 25 mM HEPES, 10 μg/mL Blasticidin, and […] Zeocin. THP1-Dual™ KO-TREX cells were treated with a dose titration of test compound in the presence of 1 μM 5-aza-2′-deoxycytidine (Sigma, cat #189825). Type 1 Interferon and cell viability were assessed after five days of treatment.
# Stock solution of test compound was prepared in DMSO followed by a three-fold dilution in DMSO. Additional 50× dilution was prepared in cell culture media for each dilution. 10 μL of diluted test compound was then added to a 384-well plate.
# (§2) THP1-Dual™ KO-TREX1 cells were treated with 1 μM 5-aza-2′-deoxycytidine. THP1-Dual™ KO-TREX1 cells (50 μL) were added to each well of the 384-well plate containing test compound titration at 10,000 cells/well. Cells were incubated at 37° C., 5% CO2 in a humidified incubator for five days. On day five, 20 μL of cell supernatant was transferred to a 384-well, white-walled plate, followed by addition to each well of 50 μL of QUANTI-LUC solution containing stabilizer. Luminescence was detected on a plate reader according to manufacturer's instructions.
# (§3) For certain compounds, the assay was run in a 96-well format, with the following modifications: • 190 μL, instead of 50 μL, of cells were added to each well, to provide 50,000 cells/well, instead of 10,000 cells/well, • Cells were incubated for 6 days, instead of 5 days, • 25 μL, instead of 20 μL, of cell supernatant was added to the white-walled plate for QUANT-LUC treatment; and • 25 μL, instead of 30 μL, of CellTiter-Glo was added to assess cell viability.
# Percent inhibition of interferon was calculated using the following analysis: (Average DMSO-Sample)/(Average DMSO-Average 30 μM control reagent)*100. The control reagent for inhibition of interferon was a specific nucleoside reverse-transcriptase inhibitor with molecular weight <600 a.m.u. Percent induction of interferon was calculated using the following analysis: (Sample-Average DMSO)/(10 μM control reagent-Average DMSO)*100. The control reagent for induction of interferon was compound 8 (4′-ethynyl-2-chloro-2′-deoxyadenosine).
# [2] = molecular target: T1, LINE1 reverse transcriptase (Homo sapiens, UniProt O00370); experiment: Transient artificial-intron Cis LINE1 reporter assay; parameters: expressed in transfected cells; settings: HEK 293 cells; ratio FLuc/RLuc reports LINE1 activity; tested up to 100 μM; read-out: IC50 for inhibiting FLuc luminescence
# Procedure: Intron-disrupted Firefly luciferase (FLuc) expression cassettes were generated as described by Xie, Y. et al. “Characterization of L1 retrotransposition with high-throughput dual-luciferase assays,” Nucleic Acid Res. (2011) Vol. 39, No. 3, e16. In addition, the plasmid contained an intact Renilla luciferase (RLuc) expression cassette on the vector backbone, in order to normalize transfection efficiency and measure potential cell toxicity.
# HEK 293 cells were seeded in 96-well plates at 1,000 cells/well in 55 μL and grown for 24 hours. Cells were transfected with FuGeneHD (Promega) following the manufacturer's protocol. Each well received 0.133 ng plasmid, 0.4 μL FuGeneHD reagent, and 4.5 μL GlutaMAX-I-supplemented Opti-MEM I reduced-serum medium (Invitrogen). Cells were simultaneously treated with test compound serially diluted starting at 100 μM in a 3-fold dilution dose response.
# Luminescence was measured using the Dual-Glo Luciferase Assay System (Promega) following the manufacturer's instructions. The ratio between FLuc and RLuc gene expression was used to report LINE1 activity.
# [3] = molecular target: T1, LINE1 reverse transcriptase; experiment: Stable artificial-intron Cis LINE1 reporter assay; parameters: expressed in transfected cells; settings: HeLa L1 artificial-intron reporter cells, doxycycline-induced, 72 h, Firefly luciferase activity
# From the text: A stable HeLa Tet-On 3G (Takara, cat no 631183) cell line expressing a bi-directional inducible LINE1 construct was generated as described in Xie, Y. et al. “Cell division promotes efficient retrotransposition in a stable L1 reporter cell line,” Mobile DNA (2013) 4:10. Single cell clones were screened for high Luciferase expression and the highest expression Firefly expressing clone was chosen for compound testing.
# Test compounds were serially diluted in DMSO and spotted in 96-well plates. Subsequently the HeLa L1 artificial-intron reporter cells were plated into the compound-containing wells (8,000 cells/well), and the cells were induced for reporter expression with doxycycline (Sigma cat no D9891) at a final concentration of 500 ng/mL. Luminescence was measured 72 h after plating using the Dual-Glo Luciferase Assay System (Promega cat no E2940) following the manufacturer's instructions. The Firefly Luciferase activity (normalized against its activity in a control well without test compound) was used to report LINE1 activity.
# [4] = system: THP1-Dual™ KO-TREX1 cells; experiment: CellTiter-Glo cell viability in THP1-Dual KO-TREX1 cells; settings: Homo sapiens, 120 h, CellTiter-Glo inhibition of cell viability, after five days of treatment, read-out: CTG IC50
# Procedure: as §1, §2, §3
# The remaining cells were assessed for cell viability by adding 30 μl of CellTiter-Glo (Promega, G9683) solution to each well, and placed on a shaker for 10 minutes at room temperature. Luminescence was detected on a plate reader, according to manufacturer's instructions. Percent inhibition of cell viability using CellTiter-Glo was calculated using the following analysis: (Average DMSO-Sample)/(Average DMSO-Average 20 μM control reagent)*100. The control reagent was Z-Leu-Leu-leucinal (see, for example, https://pubchem.ncbi.nlm.nib.gov/compound/462382).
# [5] = THP-1, 120 h, inducers of IFN, in the presence of 1 μM 5-aza-2′-deoxycytidine, five days
# [6] = THP-1, another experiment testing the same compound (not the one of Table 7)
# [7] = THP-1, 120 h, in the presence of 1 μM 5-aza-2′-deoxycytidine, five days
# T1 sequence (O00370 whole entry, looked up): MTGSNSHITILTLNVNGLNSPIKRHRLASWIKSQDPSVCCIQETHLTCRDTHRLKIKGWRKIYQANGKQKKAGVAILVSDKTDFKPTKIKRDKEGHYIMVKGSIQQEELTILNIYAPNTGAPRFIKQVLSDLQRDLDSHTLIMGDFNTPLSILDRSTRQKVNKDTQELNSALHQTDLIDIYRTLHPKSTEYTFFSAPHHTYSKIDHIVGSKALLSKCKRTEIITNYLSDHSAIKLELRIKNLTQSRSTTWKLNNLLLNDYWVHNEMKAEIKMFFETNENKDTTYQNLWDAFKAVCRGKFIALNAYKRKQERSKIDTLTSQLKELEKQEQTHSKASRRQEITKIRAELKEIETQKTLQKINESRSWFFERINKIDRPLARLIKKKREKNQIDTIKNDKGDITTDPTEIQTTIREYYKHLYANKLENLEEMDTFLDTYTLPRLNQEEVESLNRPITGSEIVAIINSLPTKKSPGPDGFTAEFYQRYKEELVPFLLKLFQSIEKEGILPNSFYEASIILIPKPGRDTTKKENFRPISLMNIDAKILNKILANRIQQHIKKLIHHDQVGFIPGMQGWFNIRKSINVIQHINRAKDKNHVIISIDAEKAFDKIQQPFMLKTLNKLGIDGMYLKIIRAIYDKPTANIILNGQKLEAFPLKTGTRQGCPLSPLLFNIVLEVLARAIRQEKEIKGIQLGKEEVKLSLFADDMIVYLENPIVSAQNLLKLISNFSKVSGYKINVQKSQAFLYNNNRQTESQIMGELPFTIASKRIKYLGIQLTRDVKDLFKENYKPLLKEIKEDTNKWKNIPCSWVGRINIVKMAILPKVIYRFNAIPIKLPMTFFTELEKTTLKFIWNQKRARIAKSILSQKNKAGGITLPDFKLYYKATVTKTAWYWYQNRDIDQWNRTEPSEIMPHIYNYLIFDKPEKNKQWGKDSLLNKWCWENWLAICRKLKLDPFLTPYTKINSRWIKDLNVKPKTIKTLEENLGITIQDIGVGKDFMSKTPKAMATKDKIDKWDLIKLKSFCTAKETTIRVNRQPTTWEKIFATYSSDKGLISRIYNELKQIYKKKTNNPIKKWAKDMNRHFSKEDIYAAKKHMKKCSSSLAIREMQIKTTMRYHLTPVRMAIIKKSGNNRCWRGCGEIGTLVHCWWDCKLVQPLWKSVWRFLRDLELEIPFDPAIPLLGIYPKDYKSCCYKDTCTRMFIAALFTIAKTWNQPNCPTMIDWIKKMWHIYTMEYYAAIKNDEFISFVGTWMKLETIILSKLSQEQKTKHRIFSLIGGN
Compound,IC50 [2] [nM],IC50 [3],"EC50 [1, 5] [nM]",IC50 [4] [nM],also measured
"C#C[C@]1(CO)O[C@@H](n2cnc3c(N)ncnc32)C[C@@H]1O [4′-ethynyl-2′-deoxyadenosine, reference compound]",41,≤ 50 nM,,,change in IFN levels (figure) [1]: induction of IFN
"Cc1cn([C@H]2C[C@H](N=[N+]=[N-])[C@@H](CO)O2)c(=O)[nH]c1=O [AZT (zidovudine), Zidovudine, reference compound]",> 100000,> 500 nM,,,
"C#C[C@]1(CO)O[C@@H](n2cnc3c(N)nc(Cl)nc32)C[C@@H]1O [Compound 8, 4′-ethynyl-2-chloro-2′-deoxyadenosine, reference compound]",8.3,≤ 50 nM,,,change in IFN levels (figure) [1]: induction of IFN
"C#C[C@]1(CO[P@@](=O)(N[C@@H](C)C(=O)OC(C)C)Oc2ccccc2)O[C@@H](n2cnc3c(N)nc(Cl)nc32)C[C@@H]1O [Compound I-1, Isopropyl ((S)-(((2R,3S,5R)-5-(6-amino-2-chloro-9H-purin-9-yl)-2-ethynyl-3-hydroxytetrahydrofuran-2-yl)methoxy)(phenoxy)phosphoryl)-L-alaninate]",,50 to 500 nM and ≤ 50 nM,1000 to 10000,> 10000,Concentration at Max Induct. [1]: 10 µM; Maximum IFN Induction ([1]; five days): >> (values from 1.50 to 2.00)
C#C[C@]1(CO[P@@](=O)(N[C@@H](C)C(=O)OC(C)C)Oc2ccccc2)O[C@@H](n2cnc3c(N)nc(F)nc32)C[C@@H]1O [Compound I-18],,50 to 500 nM,> 10000,,
"C#C[C@]1(COP(=O)(O)N[C@@H](C)C(=O)OC(C)C)O[C@@H](n2cnc3c(N)nc(Cl)nc32)C[C@@H]1O [Compound I-47, [(2R,3S,5R)-5-(6-amino-2-chloropurin-9-yl)-2-ethynyl-3-hydroxyoxolan-2-yl]methoxy([(2S)-1-isopropoxy-1-oxopropan-2-yl]amino)phosphinic acid]",,≤ 50 nM,1000 to 10000,> 10000,"EC50 ([1]; THP-1, experiment depicted in FIG. 11 / FIG. 12): < 1000 nM; EC50 [1, 6]: > 10000 nM; Concentration at Max Induct. [1]: 10 µM; Maximum IFN Induction ([1]; five days): >>> (values greater than 2.00)"
C#C[C@]1(COP(=O)(O)N[C@H](C)C(=O)OC(C)C)O[C@@H](n2cnc3c(N)nc(Cl)nc32)C[C@@H]1O [Compound I-48],,≤ 50 nM,1000 to 10000,> 10000,Concentration at Max Induct. [1]: 10 µM; Maximum IFN Induction ([1]; five days): > (values from 1.00 to less than 1.50)
C#C[C@]1(COP(=O)(O)N[C@@H](C)C(=O)OC(C)C)O[C@@H](n2cnc3c(N)nc(F)nc32)C[C@@H]1O [Compound I-49],,≤ 50 nM,> 10000,,
C#C[C@]1(COP(=O)(O)N[C@H](C)C(=O)OC(C)C)O[C@@H](n2cnc3c(N)nc(F)nc32)C[C@@H]1O [Compound I-50],,50 to 500 nM,,,
C#C[C@]1(CO[P@](=O)(N[C@@H](C)C(=O)OC(C)C)Oc2ccccc2)O[C@@H](n2cnc3c(N)nc(F)nc32)C[C@@H]1O [Compound I-54],,≤ 50 nM,< 1000,> 10000,"EC50 [1, 6]: > 10000 nM"
"C#C[C@]1(COP(=O)(N[C@@H](C)C(=O)OC(C)C)OCOC(=O)OC(C)C)O[C@@H](n2cnc3c(N)nc(Cl)nc32)C[C@@H]1O (stereo partly drawn) [I-14 and I-15, isopropyl (2S)-2-({[(2R,3S,5R)-5-(6-amino-2-chloropurin-9-yl)-2-ethynyl-3-hydroxyoxolan-2-yl]methoxy([(isopropoxycarbonyl)oxy]methoxy)phosphoryl}amino)propanoate]",,> 500 nM,,,
C#C[C@@]12COP(=O)(OC(C)C)O[C@H]1C[C@H](n1cnc3c(N)nc(Cl)nc31)O2 (some centres unmarked) [IV-1],,50 to 500 nM,,,
C#C[C@@]12COP(=O)(N[C@H](C)C(=O)OC(C)C)O[C@H]1C[C@H](n1cnc3c(N)nc(Cl)nc31)O2 (some centres unmarked) [IV-5],,50 to 500 nM,> 10000,,
"C#C[C@@]12COP(=O)(N[C@@H](C)C(=O)OC(C)C)O[C@H]1C[C@H](n1cnc3c(N)nc(Cl)nc31)O2 (stereo partly drawn) [IV-6, isopropyl (2S)-2-{[(4aR,6R,7aS)-6-(6-amino-2-chloropurin-9-yl)-4a-ethynyl-2-oxo-tetrahydro-2lambda5-furo[3,2-d][1,3,2]dioxaphosphinin-2-yl]amino}propanoate]",,50 to 500 nM,,3100,"IC50 [1, 7]: < 1000 nM"
C#C[C@@]12COP(=O)(OC(C)C)O[C@H]1C[C@H](n1cnc3c(N)nc(F)nc31)O2 (some centres unmarked) [IV-10],,≤ 50 nM,,,
C#C[C@@]12COP(=O)(N[C@H](C)C(=O)OC(C)C)O[C@H]1C[C@H](n1cnc3c(N)nc(F)nc31)O2 (some centres unmarked) [IV-12],,50 to 500 nM,,> 10000,"IC50 [1, 7]: 1000 to 5000 nM"
C#C[C@@]12COP(=O)(N[C@@H](C)C(=O)OC(C)C)O[C@H]1C[C@H](n1cnc3c(N)nc(F)nc31)O2 (some centres unmarked) [IV-13],,50 to 500 nM,,2500,"IC50 [1, 7]: < 1000 nM"
Nc1ccn([C@H]2CO[C@@H](CO)S2)c(=O)n1 [apricitabine],> 100000,,,,
"Nc1ccn([C@@H]2CS[C@H](CO)O2)c(=O)n1 [lamivudine (3TC), Lamivudine, reference compound]",> 100000,> 500 nM,,,
"Nc1nc(=O)c2ncn([C@@H]3C[C@H](CO)[C@H]3CO)c2[nH]1 [lobucavir, reference compound]",> 100000,> 500 nM,,,
